Data: the NIST ThermoML archive (doi:10.1016/j.jct.2007.10.010)
“And” between values parts separate entries of the source, which are not always exact repeats. Identical values can stand only once.

What was measured:
[1] = refractive index (Na D-line) (dimensionless); conditions: 298.15 K; 101.33 kPa; Liquid; Standard Abbe refractometry
[2] = 101 kPa, Liquid
[3] = xn = mol fraction of the nth substance listed; conditions: 101 kPa, Liquid

CCCCCCCC [octane]
Conditions | refractive index
[1] | 1.395

[2]
Conditions | mass density
298.15 K | 698.62 kg/m3 [middle of 4 runs]
308.15 K | 690.44 kg/m3 and 690.43 kg/m3 and 690.45 kg/m3
318.15 K | 682.47 kg/m3 and 682.49 kg/m3
328.15 K | 674.55 kg/m3 and 674.56 kg/m3 and 674.54 kg/m3

Cc1cc(C)cc(C)c1 [1,3,5-trimethylbenzene] + CCCCCCCC
[3]
Conditions | mass density [kg/m3]
298.15 K, x2 = 0 | 861.13
298.15 K, x2 = 0.08503 | 845.14
298.15 K, x2 = 0.1479 | 833.6
298.15 K, x2 = 0.2132 | 821.88
298.15 K, x2 = 0.2717 | 811.56
298.15 K, x2 = 0.3177 | 803.61
298.15 K, x2 = 0.3864 | 791.95
298.15 K, x2 = 0.463 | 779.23
298.15 K, x2 = 0.5407 | 766.69
298.15 K, x2 = 0.6037 | 756.73
298.15 K, x2 = 0.6725 | 746.08
298.15 K, x2 = 0.723 | 738.44
298.15 K, x2 = 0.7969 | 727.45
298.15 K, x2 = 0.8623 | 717.95
298.15 K, x2 = 0.9422 | 706.63
308.15 K, x2 = 0 | 852.89
308.15 K, x2 = 0.08503 | 836.88
308.15 K, x2 = 0.1386 | 827.02
308.15 K, x2 = 0.2132 | 813.6
308.15 K, x2 = 0.2717 | 803.29
308.15 K, x2 = 0.3177 | 795.34
308.15 K, x2 = 0.3864 | 783.69
308.15 K, x2 = 0.463 | 770.99
308.15 K, x2 = 0.5407 | 758.45
308.15 K, x2 = 0.6037 | 748.49
308.15 K, x2 = 0.6725 | 737.87
308.15 K, x2 = 0.723 | 730.2
308.15 K, x2 = 0.7969 | 719.24
308.15 K, x2 = 0.8623 | 709.74
308.15 K, x2 = 0.9422 | 698.43
318.15 K, x2 = 0 | 844.78
318.15 K, x2 = 0.06984 | 831.58
318.15 K, x2 = 0.1363 | 819.34
318.15 K, x2 = 0.2001 | 807.84
318.15 K, x2 = 0.2695 | 795.59
318.15 K, x2 = 0.3464 | 782.35
318.15 K, x2 = 0.398 | 773.67
318.15 K, x2 = 0.4464 | 765.65
318.15 K, x2 = 0.536 | 751.14
318.15 K, x2 = 0.5995 | 741.12
318.15 K, x2 = 0.6643 | 731.1
318.15 K, x2 = 0.7301 | 721.16
318.15 K, x2 = 0.7839 | 713.18
318.15 K, x2 = 0.8537 | 703.03
318.15 K, x2 = 0.9507 | 689.3
328.15 K, x2 = 0 | 836.65
328.15 K, x2 = 0.06984 | 823.48
328.15 K, x2 = 0.1363 | 811.25
328.15 K, x2 = 0.2001 | 799.75
328.15 K, x2 = 0.2677 | 787.84
328.15 K, x2 = 0.3464 | 774.3
328.15 K, x2 = 0.398 | 765.62
328.15 K, x2 = 0.4622 | 755.02
328.15 K, x2 = 0.5368 | 743
328.15 K, x2 = 0.6022 | 732.7
328.15 K, x2 = 0.6552 | 724.51
328.15 K, x2 = 0.7389 | 711.86
328.15 K, x2 = 0.7839 | 705.21
328.15 K, x2 = 0.8537 | 695.07
328.15 K, x2 = 0.9507 | 681.35

CCCCCCCC [octane] + Cc1cccc(C)c1
[3], x1 = 1
Conditions | mass density [kg/m3]
298.15 K | 698.63
308.15 K | 690.43
318.15 K | 682.49
328.15 K | 674.56

Cc1ccccc1 [toluene] + CCCCCCCC
[3], x2 = 0
Conditions | mass density [kg/m3]
298.15 K | 862.29
308.15 K | 852.86
318.15 K | 843.6
328.15 K | 834.29

CCCCCCCC [octane] + c1ccccc1
[3]
Conditions | mass density [kg/m3]
298.15 K, x1 = 0.06831 | 850.82
298.15 K, x1 = 0.1358 | 831.14
298.15 K, x1 = 0.2041 | 813.51
298.15 K, x1 = 0.2616 | 800.23
298.15 K, x1 = 0.3322 | 785.49
298.15 K, x1 = 0.3912 | 774.33
298.15 K, x1 = 0.4581 | 762.82
298.15 K, x1 = 0.5388 | 750.32
298.15 K, x1 = 0.6054 | 740.95
298.15 K, x1 = 0.664 | 733.37
298.15 K, x1 = 0.7116 | 727.59
298.15 K, x1 = 0.7979 | 717.91
298.15 K, x1 = 0.8682 | 710.7
298.15 K, x1 = 0.9264 | 705.15
298.15 K, x1 = 1 | 698.6
308.15 K, x1 = 0.06734 | 840.85
308.15 K, x1 = 0.1335 | 821.8
308.15 K, x1 = 0.1989 | 804.98
308.15 K, x1 = 0.2562 | 791.81
308.15 K, x1 = 0.3283 | 776.91
308.15 K, x1 = 0.3888 | 765.56
308.15 K, x1 = 0.4682 | 752.18
308.15 K, x1 = 0.5284 | 742.95
308.15 K, x1 = 0.5971 | 733.35
308.15 K, x1 = 0.6592 | 725.32
308.15 K, x1 = 0.7248 | 717.54
308.15 K, x1 = 0.8156 | 707.74
308.15 K, x1 = 0.8852 | 700.86
308.15 K, x1 = 0.9515 | 694.77
308.15 K, x1 = 1 | 690.44
318.15 K, x1 = 0.06734 | 830.41
318.15 K, x1 = 0.1335 | 811.7
318.15 K, x1 = 0.1932 | 796.52
318.15 K, x1 = 0.2511 | 783.28
318.15 K, x1 = 0.3289 | 767.43
318.15 K, x1 = 0.3937 | 755.54
318.15 K, x1 = 0.4681 | 743.19
318.15 K, x1 = 0.5302 | 733.8
318.15 K, x1 = 0.5866 | 726.02
318.15 K, x1 = 0.6709 | 715.36
318.15 K, x1 = 0.7248 | 709.07
318.15 K, x1 = 0.8156 | 699.39
318.15 K, x1 = 0.8852 | 692.61
318.15 K, x1 = 0.9515 | 686.61
318.15 K, x1 = 1 | 682.47
328.15 K, x1 = 0.06734 | 820.09
328.15 K, x1 = 0.1335 | 801.67
328.15 K, x1 = 0.1932 | 786.83
328.15 K, x1 = 0.2511 | 773.79
328.15 K, x1 = 0.3289 | 758.15
328.15 K, x1 = 0.3937 | 746.47
328.15 K, x1 = 0.4681 | 734.35
328.15 K, x1 = 0.5302 | 725.13
328.15 K, x1 = 0.5866 | 717.46
328.15 K, x1 = 0.6709 | 706.93
328.15 K, x1 = 0.7248 | 700.75
328.15 K, x1 = 0.8156 | 691.2
328.15 K, x1 = 0.8852 | 684.52
328.15 K, x1 = 0.9515 | 678.62
328.15 K, x1 = 1 | 674.54

CCCCCCCC [octane] + Cc1cc(C)cc(C)c1
[3], x1 = 1
Conditions | mass density [kg/m3]
298.15 K | 698.62
308.15 K | 690.45
318.15 K | 682.49
328.15 K | 674.54
